In US20080004274A1, “Novel biaromatic compounds that modulate PPAR type receptors and cosmetic/pharmaceutical compositions comprised thereof” (GALDERMA RESEARCH & DEVELOPMENT, priority 2004, published 2008) one finds Kd data, which are given here for ten compounds.

Common to all, as to assay type: cell-based
In one experiment the target is T1, PPARα (Homo sapiens, UniProt Q07869).
T1 construct: the reporter is ERE-βGlob-Luc
T1 sequence (Q07869 200-468 limits assumed): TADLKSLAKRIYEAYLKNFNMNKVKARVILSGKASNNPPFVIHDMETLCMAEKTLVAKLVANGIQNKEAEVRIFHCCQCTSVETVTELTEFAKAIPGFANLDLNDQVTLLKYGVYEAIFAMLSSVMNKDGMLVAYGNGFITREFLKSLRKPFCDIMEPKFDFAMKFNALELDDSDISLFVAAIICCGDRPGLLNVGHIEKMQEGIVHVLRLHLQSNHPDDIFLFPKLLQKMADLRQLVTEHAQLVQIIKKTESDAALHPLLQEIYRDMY
The experiment can be described thus: Cross-curve PPAR transactivation test, PPARα. As to conditions: HeLN cells, stable transfectants ERE-βGlob-Luc-SV-Neo and Gal-hPPARα; luciferase; cross curves against reference agonist, Schild regression; n.a. means not active; read-out: PPAR alpha Kd app. The protocol: (§1) The activation of the receptors with an agonist (activator) in HeLN cells leads to the expression of a reporter gene, luciferase, which, in the presence of a substrate, generates light. The modulation of the receptors is measured by quantifying the luminescence produced after incubating the cells in the presence of a reference agonist. The ligands displace the agonist from its site. The measurement of the activity is performed by quantifying the light produced. This measurement makes it possible to determine the modulatory activity of the compounds according to the invention by determining the constant that is the affinity of the molecule for the receptor. Since this value can fluctuate depending on the basal activity and the expression of the receptor, it is referred to as Kd apparent (KdApp in nM).
(§2) To determine this constant, “cross curves” of the test product against a reference agonist are produced in a 96-well plate: 10 concentrations of the test product plus a concentration 0 are arranged in a line, and 7 concentrations of the agonist plus a concentration 0 are arranged in a column. This is 88 measurement points for 1 product and 1 receptor. The remaining 8 wells are used for repeatability controls.
(§3) Measurements are also taken for total agonist controls with the same products.
(§4) The HeLN cell lines used are stable transfectants containing the plasmids ERE-βGlob-Luc-SV-Neo (reporter gene) and PPAR (α, δ, γ) Gal-hPPAR. These cells are inoculated into 96-well plates at a rate of 10 000 cells per well in 100 μl of DMEM medium without phenol red and supplemented with 10% of defatted calf serum. The plates are then incubated at 37° C. and 7% CO2 for 16 hours.
(§5) The various dilutions of the test products and of the reference ligand are added at a rate of 5 μl per well. The plates are then incubated for 18 hours at 37° C. and 7% CO2. The culture medium is removed by turning over and 100 μl of a 1:1 PBS/luciferin mixture are added to each well. After 5 minutes, the plates are read by the luminescence detector.

For another experiment, the target named is T2, PPARδ (Homo sapiens, UniProt Q03181).
T2 construct: the reporter is ERE-βGlob-Luc
T2 sequence (Q03181 171-441 limits assumed): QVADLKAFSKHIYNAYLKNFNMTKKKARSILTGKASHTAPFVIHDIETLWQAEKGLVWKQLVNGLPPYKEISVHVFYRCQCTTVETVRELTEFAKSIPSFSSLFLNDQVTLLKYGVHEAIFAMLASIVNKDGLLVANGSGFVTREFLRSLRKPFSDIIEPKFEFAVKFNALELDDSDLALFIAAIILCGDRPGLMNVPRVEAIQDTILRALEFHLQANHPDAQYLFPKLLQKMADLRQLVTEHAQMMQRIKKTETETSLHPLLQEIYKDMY
The experiment can be described thus: Cross-curve PPAR transactivation test, PPARδ. As to conditions: HeLN cells, stable transfectants ERE-βGlob-Luc-SV-Neo and Gal-hPPARδ; luciferase; cross curves against reference agonist, Schild regression; n.a. means not active; read-out: PPARs delta Kd app. The protocol: as §1, §2, §3, §4, §5

The target in a further experiment is T3, PPARγ (Homo sapiens, UniProt P37231).
T3 construct: the reporter is ERE-βGlob-Luc
T3 sequence (P37231 238-505 limits assumed): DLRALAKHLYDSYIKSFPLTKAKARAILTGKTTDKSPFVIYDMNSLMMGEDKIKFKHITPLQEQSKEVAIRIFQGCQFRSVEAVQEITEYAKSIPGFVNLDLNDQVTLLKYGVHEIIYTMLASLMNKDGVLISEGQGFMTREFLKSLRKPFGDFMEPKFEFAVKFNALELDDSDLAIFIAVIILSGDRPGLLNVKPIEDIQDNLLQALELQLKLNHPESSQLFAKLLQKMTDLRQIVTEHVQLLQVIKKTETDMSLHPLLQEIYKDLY
In words: Cross-curve PPAR transactivation test, PPARγ. As to conditions: HeLN cells, stable transfectants ERE-βGlob-Luc-SV-Neo and Gal-hPPARγ; luciferase; cross curves against reference agonist, Schild regression; n.a. means not active; read-out: PPAR gamma Kd app. As for the experimental part:
as §1, §2, §3, §4, §5

Take `CCCCN1C(=O)/C(=N/NC(=O)Nc2ccccc2)c2cc(SCCc3ccc(C(=O)O)cc3)ccc21` [Example 14, 4-{2-[3-((anilinocarbonyl)hydrazono)-2-oxo-1-butyl-2,3-dihydro-1H-indol-5-ylsulfanyl]ethyl}benzoic acid]: the results for the Kd at PPARα, on PPARδ and on PPARγ were 2000 nM, 120 nM and 1000 nM, respectively.
Consider `O=C(N/N=C1\C(=O)N(CCc2ccccc2)c2ccc(SCCc3ccc(C(=O)O)cc3)cc21)Nc1ccccc1` [Example 16, 4-{2-[3-((anilinocarbonyl)hydrazono)-2-oxo-1-phenethyl-2,3-dihydro-1H-indol-5-ylsulfanyl]ethyl}benzoic acid], for which the Kd on PPARα came out at 2000 nM; at PPARδ it was 4000 nM; at PPARγ, 500 nM.
On to `COC(=O)c1ccc(CCSc2ccc3c(c2)/C(=N\NC(=O)Nc2cccc(F)c2)C(=O)N3CCc2ccccc2)cc1` [Example 17, methyl 4-{2-[3-((3-fluoroanilinocarbonyl)hydrazono)-2-oxo-1-phenethyl-2,3-dihydro-1H-indol-5-ylsulfanyl]ethyl}benzoate], for which the Kd at PPARα was determined as 250 nM; at PPARγ it was 1000 nM.
As for `CCCCN1C(=O)/C(=N\NC(=O)Nc2cccc(F)c2)c2cc(SCCc3ccc(C(=O)O)cc3)ccc21` [Example 18, 4-{2-[3-((3-fluoroanilinocarbonyl)hydrazono)-2-oxo-1-butyl-2,3-dihydro-1H-indol-5-ylsulfanyl]ethyl}benzoic acid], the values for the Kd at PPARα, at PPARδ and at PPARγ were 2000 nM, 250 nM and 500 nM, respectively.
The corresponding values for `CCCCCCCN1C(=O)/C(=N\NC(=O)Nc2cccc(C(F)(F)F)c2)c2cc(SCCc3ccc(C(=O)O)cc3)ccc21` [Example 20, 4-{2-[3-((3-trifluoromethylanilinocarbonyl)hydrazono)-2-oxo-1-heptyl-2,3-dihydro-1H-indol-5-ylsulfanyl]ethyl}benzoic acid] are 2000 nM, 500 nM and 1000 nM.
The corresponding values for `CCCCCCCN1C(=O)C(=NNC(=O)Nc2ccccc2Cl)c2cc(SCCc3ccc(C(=O)O)cc3)ccc21` [Example 22, 4-{2-[3((2-chloroanilinocarbonyl)hydrazono)-2-oxo-1-heptyl-2,3-dihydro-1H-indol-5-ylsulfanyl]ethyl}benzoic acid] are 2000 nM, 60 nM and 1000 nM.
For `O=C(N/N=C1/C(=O)N(CCc2ccccc2)c2ccc(SCCc3ccc(C(=O)O)cc3)cc21)Nc1ccc(C(F)(F)F)cc1Cl` [Example 35, 4-{2-[3((2-chloro-4-trifluoromethylanilinocarbonyl)hydrazono)-2-oxo-1-phenethyl-2,3-dihydro-1H-indol-5-ylsulfanyl]ethyl}benzoic acid], the Kd at PPARα was found to be 8000 nM; at PPARδ it was 500 nM; at PPARγ, 250 nM.
With `CCCCCCN1C(=O)/C(=N/NC(=O)Nc2ccccc2)c2cc(SCCCc3ccc(C(=O)O)cc3)ccc21` [Example 62, 4-[3-(3-((anilinocarbonyl)hydrazono)-2-oxo-1-hexyl-2,3-dihydro-1H-indol-5-ylsulfanyl)propyl]benzoic acid], the Kd at PPARδ amounted to 500 nM; at PPARγ it was 4000 nM.
With `CCCCCCN1C(=O)/C(=N/NC(=O)Nc2ccc(F)cc2)c2cc(SCCCc3ccc(C(=O)O)cc3)ccc21` [Example 74, 4-[3-(3-((4-fluoroanilinocarbonyl)hydrazono)-2-oxo-1-hexyl-2,3-dihydro-1H-indol-5-ylsulfanyl)propyl]benzoic acid], the figures for the Kd at PPARα, on PPARδ and on PPARγ were 4000 nM, 250 nM and 4000 nM, respectively.
Take `CCCCCCCN1C(=O)/C(=N\NC(=O)Nc2ccccc2Cl)c2cc(SCCc3ccc(C(=O)O)cc3)ccc21` [Example 84, 4-{2-[3-((2-chloroanilino)carbonylhydrazono)-2-oxo-1-heptyl-2,3-dihydro-1H-indol-5-ylsulfanyl]ethyl}benzoic acid]: the Kd is 500 nM at PPARα, 30 nM at PPARδ and 1000 nM at PPARγ.
